Among the data in US20260015337A1 (Trawsfynydd Therapeutics, Inc., priority 2022, published 2026) are IC50 values, retold here.

The structures appear in SMILES notation.

The term IC50 denotes the concentration that gives 50% inhibition.

This experiment deals with 3CL Protease (Severe acute respiratory syndrome coronavirus 2, UniProt P0DTD1). Briefly: 3CL Protease enzymatic activity assay (BPS Bioscience Assay Kit #78043-1, fluorescence). It counts as biochemical, SARS-CoV-2. The following applies: Table A; 30 min preincubation, 40 μM substrate, 4 hours at room temperature; read-out: IC50, nM (3CL Protease enzymatic activity). How it is done:
For determination of 3CL Protease enzymatic activity was used Assay Kit of BPS Bioscience, San Diego, CA (Catalog #78043-1).
All samples and controls should be tested in duplicate. • 1) Just before use, dilute 0.5 M DTT 500 times into the 3CL Protease Assay Buffer to obtain a DTT concentration of 1 mM. For example, add 10 μl of 0.5 M DTT to 5 ml of assay buffer. Prepare enough DTT-containing buffer as required for the assay. Store the remaining assay buffer at −20° C. • 2) Thaw the 3CL Protease on ice. Briefly spin the tube containing the enzyme to recover the full content of the tube. Note: 3CL Protease enzyme is sensitive to freeze/thaw cycles. […] Note: The exact concentration and volume of enzyme is lot-specific and will be indicated on the tube. Calculate required dilution from the information in the tube. It may be desirable to dilute the enzyme serially to avoid using large amounts of protease assay buffer for the dilution. • 4) Add 30 μl of diluted 3CL Protease to the wells designated as “Positive Control,” “Inhibitor Control,” and “Test Inhibitor.” Add 30 μl of Assay Buffer (containing 1 mM DTT) to the “Blank” wells. • 5) Dilute the 50 μg GC376 in 200 μl of Assay Buffer to obtain a 500 μM solution. Add 10 μl of GC376 (500 μM) to the wells labeled “Inhibitor Control”. Aliquot and store the remaining solution at −80° C. • 6) Prepare the Test Inhibitor. The final concentration of DMSO in the assay should not exceed 1%. If the Test Inhibitor is dissolved in DMSO, make a 100-fold higher concentration of the compound than the highest desired concentration. Then make a 20-fold dilution in 1× Assay Buffer (containing DTT). At this step the compound concentration is 5-fold higher than the final concentration. If the test inhibitor is dissolved in water, make a 5-fold higher concentration of the test compound than the final desired concentration in the Assay buffer (containing DTT). Add 10 μl of Test Inhibitor to each well designated “Test Inhibitor”. • 7) Diluent Solution (no inhibitor): add 10 μl of assay buffer (if the test compound is water soluble and was diluted in assay buffer) or 10 μl of 5% DMSO diluted in assay buffer (if DMSO was used to dissolve the test inhibitor) to “Blank” and “Positive Control” wells.
• 8) Preincubate for 30 min at room temperature with slow shaking. • 9) Dilute the 25 μl of 3CL Protease substrate (10 mM) in 1.25 ml of the Assay Buffer containing DTT, to make a […] solution. The final concentration of the 3CL Protease substrate in a 50 μl reaction is 40 μM. • 10) Start the reaction by adding 10 μl of the substrate solution to all the wells. Seal the plate with the plate sealer and incubate for 4 hours at room temperature with slow shaking. • 11) Measure the fluorescence intensity in a microtiter plate-reader fluorometer (Tecan Spark Cyto) capable of excitation at a wavelength 360 nm and detection of emission at a wavelength 460 nm. The fluorescence intensity can also be measured kinetically. The “Blank” value is subtracted from all other values. • The % inhibition was then used to calculate the IC50 values.
Turning to `COC(=O)N[C@@H](C(=O)N1CC2C(C1C(=O)N[C@@H](C#N)Cc1cc3cc(C)ccc3[nH]c1=O)C2(C)C)C(C)(C)C` (stereo in doubt) [Compound 200, Methyl N-[(1R)-1-[(1S)-2-[[(1R)-1-cyano-2-(6-methyl-2-oxo-1H-quinolin-3-yl)ethyl]carbamoyl]-6,6-dimethyl-3-azabicyclo[3.1.0]hexane-3-carbonyl]-2,2-dimethyl-propyl]carbamate], the IC50 is less than 50 nM.

Consider `CCOC(=O)N[C@@H](C(=O)N1CC2C(C1C(=O)N[C@@H](C#N)Cc1cc3cc(C)ccc3[nH]c1=O)C2(C)C)C(C)(C)C` (stereo in doubt) [Compound 201, Ethyl N-[(1R)-1-[(1S)-2-[[(1R)-1-cyano-2-(6-methyl-2-oxo-1H-quinolin-3-yl)ethyl]carbamoyl]-6,6-dimethyl-3-azabicyclo[3.1.0]hexane-3-carbonyl]-2,2-dimethyl-propyl]carbamate], for which the concentration for half-maximal inhibition (IC50) was in the range of 50 to 100 nM.

As to `Cc1ccc2[nH]c(=O)c(C[C@H](C#N)NC(=O)C3C4C(CN3C(=O)[C@H](NC(=O)OC(C)C)C(C)(C)C)C4(C)C)cc2c1` (stereo in doubt) [Compound 202, Isopropyl N-[(1R)-1-[(1S)-2-[[(1R)-1-cyano-2-(6-methyl-2-oxo-1H-quinolin-3-yl)ethyl]carbamoyl]-6,6-dimethyl-3-azabicyclo[3.1.0]hexane-3-carbonyl]-2,2-dimethyl-propyl]carbamate], the IC50 was 100 to 250 nM.

Consider `Cc1ccc2[nH]c(=O)c(C[C@H](C#N)NC(=O)C3C4C(CN3C(=O)[C@H](NS(=O)(=O)C3CC3)C(C)(C)C)C4(C)C)cc2c1` (stereo in doubt) [Compound 203, (1S)—N-[(1R)-1-Cyano-2-(6-methyl-2-oxo-1H-quinolin-3-yl)ethyl]-3-[(2R)-2-(cyclopropylsulfonylamino)-3,3-dimethyl-butanoyl]-6,6-dimethyl-3-azabicyclo[3.1.0]hexane-2-carboxamide], for which the IC50 fell in the range of 50 to 100 nM.

With `Cc1ccc2[nH]c(=O)c(C[C@H](C#N)NC(=O)C3C4C(CN3C(=O)[C@H](NC(=O)C(C)C)C(C)(C)C)C4(C)C)cc2c1` (stereo in doubt) [Compound 204, (1S)—N-[(1R)-1-cyano-2-(6-methyl-2-oxo-1H-quinolin-3-yl)ethyl]-3-[(2R)-3,3-dimethyl-2-(2-methylpropanoylamino)butanoyl]-6,6-dimethyl-3-azabicyclo[3.1.0]hexane-2-carboxamide], the IC50 is 50 to 100 nM.

With `Cc1ccc2[nH]c(=O)c(C[C@@H](C#N)NC(=O)[C@@H]3[C@H]4[C@H](CN3C(=O)[C@@H](NC(=O)C(F)(F)F)C(C)(C)C)C4(C)C)cc2c1` [Compound 113, (1S,2S,5S)—N-[(1S)-1-cyano-2-(6-methyl-2-oxo-1H-quinolin-3-yl)ethyl]-3-[(2S)-3,3-dimethyl-2-[(2,2,2-trifluoroacetyl)amino]butanoyl]-6,6-dimethyl-3-azabicyclo[3.1.0]hexane-2-carboxamide], the half-inhibitory concentration (IC50) was less than 50 nM.

For `Cc1ccc2[nH]c(=O)c(C[C@H](C#N)NC(=O)[C@@H]3[C@H]4[C@H](CN3C(=O)[C@@H](NC(=O)C(F)(F)F)C(C)(C)C)C4(C)C)cc2c1` [Compound 114, (1S,2S,5S)—N-[(1R)-1-cyano-2-(6-methyl-2-oxo-1H-quinolin-3-yl)ethyl]-3-[(2S)-3,3-dimethyl-2-[(2,2,2-trifluoroacetyl)amino]butanoyl]-6,6-dimethyl-3-azabicyclo[3.1.0]hexane-2-carboxamide], the IC50 is not below 1000 nM.

Regarding `Cc1ccc2c(c1)CC(C[C@@H](C#N)NC(=O)[C@@H]1[C@@H]3[C@H](CN1C(=O)[C@@H](NC(=O)C(F)(F)F)C(C)(C)C)C3(C)C)C(=O)N2` (stereo partly drawn) [Compound 120, (1R,2S,5S)—N-[(1S)-1-Cyano-2-(6-methyl-2-oxo-3,4-dihydro-1H-quinolin-3-yl)ethyl]-3-[(2S)-3,3-dimethyl-2-[(2,2,2-trifluoroacetyl)amino]butanoyl]-6,6-dimethyl-3-azabicyclo[3.1.0]hexane-2-carboxamide], the IC50 is less than 50 nM.

`CC(C)(C)[C@H](NS(C)(=O)=O)C(=O)N1C[C@H]2[C@H]([C@H]1C(=O)NC(C#N)Cc1cc3cnccc3[nH]c1=O)C2(C)C` (stereo partly drawn) [Compound 130, (1S,2S,5S)-N-[1-cyano-2-(2-oxo-1H-1,6-naphthyridin-3-yl)ethyl]-3-[(2S)-2-(methanesulfonamido)-3,3-dimethyl-butanoyl]-6,6-dimethyl-3-azabicyclo[3.1.0]hexane-2-carboxamide]: the IC50 is less than 50 nM.

As for `Cc1ccc2[nH]c(=O)c(CC(C#N)NC(=O)[C@@H]3[C@H]4[C@H](CN3C(=O)[C@@H](Nc3ccnc(C)n3)C(C)(C)C)C4(C)C)cc2c1` (stereo partly shown) [Compound 153, 3-[3,3-Dimethyl-2-(2-methyl-pyrimidin-4-ylamino)-butyryl]-6,6-dimethyl-3-aza-bicyclo[3.1.0]hexane-2-carboxylic acid [1-cyano-2-(6-methyl-2-oxo-1,2-dihydro-quinolin-3-yl)-ethyl]-amide], the IC50 is not below 1000 nM.

For `Cc1ccc2[nH]c(=O)c(CC(C#N)NC(=O)[C@H](Cc3ccccc3)NC(=O)[C@@H](NS(=O)(=O)CC(F)(F)F)C(C)(C)C)cc2c1` (stereo partly drawn) [Compound 164, (2S)—N-((2S)-1-((1-Cyano-2-(6-methyl-2-oxo-1,2-dihydroquinolin-3-yl)ethyl)amino)-1-oxo-3-phenylpropan-2-yl)-3,3-dimethyl-2-((2,2,2-trifluoroethyl)sulfonamido)butanamide], the IC50 was in the range of 100 to 250 nM.

Regarding `Cc1ccc2[nH]c(=O)c(CC(C#N)NC(=O)[C@H](Cc3cc(F)c(F)cc3F)NC(=O)[C@@H](NS(=O)(=O)CC(F)(F)F)C(C)(C)C)cc2c1` (stereo partly drawn) [Compound 166, (2S)—N-((2S)-1-((1-Cyano-2-(6-methyl-2-oxo-1,2-dihydroquinolin-3-yl)ethyl)amino)-1-oxo-3-(2,4,5-trifluorophenyl)propan-2-yl)-3,3-dimethyl-2-((2,2,2-trifluoroethyl)sulfonamido)butanamide], the IC50 was 500 to 1000 nM.

In the case of `CC(C)(C)[C@H](NC(=O)C(F)(F)F)C(=O)N1C[C@H]2[C@@H]([C@H]1C(=O)N[C@@H](C#N)Cc1cc3cnccc3[nH]c1=O)C2(C)C` [Compound 173, (1R,2S,5S)—N—((R)-1-Cyano-2-(2-oxo-1,2-dihydro-1,6-naphthyridin-3-yl)ethyl)-3-((S)-3,3-dimethyl-2-(2,2,2-trifluoroacetamido)butanoyl)-6,6-dimethyl-3-azabicyclo[3.1.0]hexane-2-carboxamide], the IC50 is not below 1000 nM.

`CC(C)(C)[C@H](NC(=O)C(F)(F)F)C(=O)N1C[C@H]2[C@@H]([C@H]1C(=O)N[C@H](C#N)Cc1cc3cnccc3[nH]c1=O)C2(C)C` [Compound 174, (1R,2S,5S)—N—((S)-1-Cyano-2-(2-oxo-1,2-dihydro-1,6-naphthyridin-3-yl)ethyl)-3-((S)-3,3-dimethyl-2-(2,2,2-trifluoroacetamido)butanoyl)-6,6-dimethyl-3-azabicyclo[3.1.0]hexane-2-carboxamide]: the IC50 is less than 50 nM.

For the compound `COc1cc2[nH]c(=O)c(C[C@@H](C#N)NC(=O)[C@@H]3[C@@H]4[C@H](CN3C(=O)[C@@H](NC(=O)C(F)(F)F)C(C)(C)C)C4(C)C)cc2cc1C` [Compound 175, (1R,2S,5S)—N-[(1S)-1-Cyano-2-(7-methoxy-6-methyl-2-oxo-1H-quinolin-3-yl)ethyl]-3-[(2S)-3,3-dimethyl-2-[(2,2,2-trifluoroacetyl)amino]butanoyl]-6,6-dimethyl-3-azabicyclo[3.1.0]hexane-2-carboxamide], the IC50 lay within 50 to 100 nM.

On to `Cc1cc2cc(C[C@@H](C#N)NC(=O)[C@@H]3[C@@H]4[C@H](CN3C(=O)[C@@H](NC(=O)C(F)(F)F)C(C)(C)C)C4(C)C)c(=O)[nH]c2cc1F` [Compound 176, (1R,2S,5S)—N—((S)-1-Cyano-2-(7-fluoro-6-methyl-2-oxo-1,2-dihydroquinolin-3-yl)ethyl)-3-((S)-3,3-dimethyl-2-(2,2,2-trifluoroacetamido)butanoyl)-6,6-dimethyl-3-azabicyclo[3.1.0]hexane-2-carboxamide], for which the IC50 lay in the range of 50 to 100 nM.
